# Measurements as given in US20050043315A1, “Aminopyrimidine compounds, processes for their preparation and pharmaceutical compositions containing them” (priority 2002, published 2005).
row,melting point [°C],SMILES
1,127 to 130,"COc1nc(N)nc(-c2ccc([S+](C)[O-])cc2)c1-c1ccc(=O)n(C(C)C)n1 (stereo not shown) [Example 153, 6-{2-Amino-4-methoxy-6-[4-(methylsulfinyl)phenyl]-5-pyrimidinyl}-2-isopropyl-3(2H)-pyridazinone]"
2,191 to 192,"CC(C)n1nc(-c2c(NCc3ccccc3)nc(N)nc2-c2ccc(F)cc2)ccc1=O [Example 156, 6-[2-Amino-4-(benzylamino)-6-(4-fluorophenyl)-5-pyrimidinyl]-2-isopropyl-3(2H)-pyridazinone]"
3,210 to 212,"CC(C)n1nc(-c2c(NCc3ccccn3)nc(N)nc2-c2ccc(F)cc2)ccc1=O [Example 157, 6-{2-Amino-4-(4-fluorophenyl)-6-[(2-pyridinylmethyl)amino]-5-pyrimidinyl}-2-isopropyl-3(2H)-pyridazinone]"
4,> 250,"CC(C)n1nc(-c2c(Nc3ccccc3)nc(N)nc2-c2ccc(F)cc2)ccc1=O [Example 158, 6-[2-Amino-4-anilino-6-(4-fluorophenyl)-5-pyrimidinyl]-2-isopropyl-3(2H)-pyridazinone]"
5,138 to 141,"CC(C)n1nc(-c2c(-c3ccccc3)nc(N)n(CC(=O)OC(C)(C)C)c2=O)ccc1=O [Example 159, tert-butyl [2-amino-5-(1-isopropyl-6-oxo-1,6-dihydro-3-pyridazinyl)-6-oxo-4-phenyl-1(6H)-pyrimidinyl]acetate]"
6,160 to 162,"CC(C)n1nc(-c2c(OCC(=O)OC(C)(C)C)nc(N)nc2-c2ccccc2)ccc1=O [Example 159, tert-butyl {[2-amino-5-(1-isopropyl-6-oxo-1,6-dihydro-3-pyridazinyl)-6-phenyl-4-pyrimidinyl]-oxy}acetate]"
7,182 to 183,"CC(C)n1nc(-c2c(OCC(=O)c3ccccc3)nc(N)nc2-c2ccccc2)ccc1=O [Example 161, 6-[2-Amino-4-(2-oxo-2-phenylethoxy)-6-phenyl-5-pyrimidinyl]-2-isopropyl-3(2H)-pyridazinone]"
8,161,"CC(C)CC(=O)Nc1ncc(-c2ccc(=O)n(C(C)C)n2)c(-c2ccccc2)n1 [Example 162, N-[5-(1-isopropyl-6-oxo-1,6-dihydro-3-pyridazinyl)-4-phenyl-2-pyrimidinyl]-3-methylbutanamide]"
9,145 to 147,"CC(C)C(=O)Nc1ncc(-c2ccc(=O)n(C(C)C)n2)c(-c2ccccc2)n1 [Example 163, N-[5-(1-isopropyl-6-oxo-1,6-dihydro-3-pyridazinyl)-4-phenyl-2-pyrimidinyl]-2-methylpropanamide]"
10,148 to 150,"CCCC(=O)Nc1ncc(-c2ccc(=O)n(C(C)C)n2)c(-c2ccccc2)n1 [Example 164, N-[5-(1-isopropyl-6-oxo-1,6-dihydro-3-pyridazinyl)-4-phenyl-2-pyrimidinyl]butanamide]"
11,195 to 198,"CC(C)n1nc(-c2cnc(NC(=O)C3CCCCC3)nc2-c2ccccc2)ccc1=O [Example 165, N-[5-(1-isopropyl-6-oxo-1,6-dihydro-3-pyridazinyl)-4-phenyl-2-pyrimidinyl]cyclohexanecarboxamide]"
12,94 to 97,"COCC(=O)Nc1ncc(-c2ccc(=O)n(C(C)C)n2)c(-c2ccccc2)n1 [Example 166, N-[5-(1-isopropyl-6-oxo-1,6-dihydro-3-pyridazinyl)-4-phenyl-2-pyrimidinyl]-2-methoxyacetamide]"
13,143 to 147,"CC(C)n1nc(-c2cnc(NC(=O)C3CC3)nc2-c2ccccc2)ccc1=O [Example 167, N-[5-(1-isopropyl-6-oxo-1,6-dihydro-3-pyridazinyl)-4-phenyl-2-pyrimidinyl]cyclopropanecarboxamide]"
14,197 to 200,"COC(=O)Nc1ncc(-c2ccc(=O)n(C(C)C)n2)c(-c2ccccc2)n1 [Example 168, Methyl 5-(1-isopropyl-6-oxo-1,6-dihydro-3-pyridazinyl)-4-phenyl-2-pyrimidinylcarbamate]"
15,116 to 120,"CC(C)n1nc(-c2cnc(NC(=O)c3ccccc3)nc2-c2ccccc2)ccc1=O [Example 169, N-[5-(1-isopropyl-6-oxo-1,6-dihydro-3-pyridazinyl)-4-phenyl-2-pyrimidinyl]benzamide]"
16,100,"CC(C)n1nc(-c2cnc(NC(=O)c3ccc(Cl)cc3)nc2-c2ccccc2)ccc1=O [Example 171, 4-Chloro-N-[5-(1-isopropyl-6-oxo-1,6-dihydro-3-pyridazinyl)-4-phenyl-2-pyrimidinyl]benzamide]"
17,171 to 174,"COc1ccc(C(=O)Nc2ncc(-c3ccc(=O)n(C(C)C)n3)c(-c3ccccc3)n2)cc1 [Example 172, N-[5-(1-isopropyl-6-oxo-1,6-dihydro-3-pyridazinyl)-4-phenyl-2-pyrimidinyl]-4-methoxybenzamide]"

row,melting point [°C],SMILES
1,116,"Cc1ccc(C(=O)Nc2ncc(-c3ccc(=O)n(C(C)C)n3)c(-c3ccccc3)n2)cc1 [Example 173, N-[5-(1-isopropyl-6-oxo-1,6-dihydro-3-pyridazinyl)-4-phenyl-2-pyrimidinyl]-4-methylbenzamide]"
2,160 to 163,"CC(C)n1nc(-c2cnc(NC(=O)c3ccc(C(F)(F)F)cc3)nc2-c2ccccc2)ccc1=O [Example 174, N-[5-(1-isopropyl-6-oxo-1,6-dihydro-3-pyridazinyl)-4-phenyl-2-pyrimidinyl]-4-(trifluoromethyl)benzamide]"
3,163 to 167,"CC(C)n1nc(-c2cnc(NC(=O)c3cccnc3)nc2-c2ccccc2)ccc1=O [Example 175, N-[5-(1-isopropyl-6-oxo-1,6-dihydro-3-pyridazinyl)-4-phenyl-2-pyrimidinyl)nicotinamide]"
4,138 to 141,"CC(C)n1nc(-c2cnc(NC(=O)C(C)(C)C)nc2-c2ccccc2)ccc1=O [Example 176, N-[5-(1-isopropyl-6-oxo-1,6-dihydro-3-pyridazinyl)-4-phenyl-2-pyrimidinyl]-2,2-dimethylpropanamide]"
5,158 to 162,"CC(C)n1nc(-c2cnc(NC(=O)OCC(Cl)(Cl)Cl)nc2-c2ccccc2)ccc1=O [Example 177, 2,2,2-trichloroethyl 5-(1-isopropyl-6-oxo-1,6-dihydro-3-pyridazinyl)-4-phenyl-2-pyrimidinylcarbamate]"
6,121 to 125,"CC(C)n1nc(-c2cnc(N(C(=O)c3ccccc3)C(=O)c3ccccc3)nc2-c2ccccc2)ccc1=O [Example 178, N-benzoyl-N-[5-(1-isopropyl-6-oxo-1,6-dihydro-3-pyridazinyl)-4-phenyl-2-pyrimidinyl]benzamide]"
7,148 to 151,"CC(C)n1nc(-c2cnc(N(C(=O)c3ccc(F)cc3)C(=O)c3ccc(F)cc3)nc2-c2ccccc2)ccc1=O [Example 179, 4-Fluoro-N-(4-fluorobenzoyl)-N-[5-(1-isopropyl-6-oxo-1,6-dihydro-3-pyridazinyl)-4-phenyl-2-pyrimidinyl]benzamide]"
8,110,"CC(C)n1nc(-c2cnc(N(C(=O)c3ccc(Cl)cc3)C(=O)c3ccc(Cl)cc3)nc2-c2ccccc2)ccc1=O [Example 180, 4-Chloro-N-(4-chlorobenzoyl)-N-[5-(1-isopropyl-6-oxo-1,6-dihydro-3-pyridazinyl)-4-phenyl-2-pyrimidinyl]benzamide]"
9,159,"CC(C)n1nc(-c2cnc(N(C(=O)c3ccc(C(F)(F)F)cc3)C(=O)c3ccc(C(F)(F)F)cc3)nc2-c2ccccc2)ccc1=O [Example 183, N-[5-(1-isopropyl-6-oxo-1,6-dihydro-3-pyridazinyl)-4-phenyl-2-pyrimidinyl]-4-(trifluoromethyl)-N-[4-(trifluoromethyl)benzoyl]benzamide]"
10,204,"CCOc1ccc(-c2nc(N)ncc2-c2ccc(=O)n(C(C)C)n2)cc1 [Example 188, 6-[2-amino-4-(4-ethoxyphenyl)-5-pyrimidinyl]-2-isopropyl-3(2H)-pyridazinone]"
11,185,"CCOc1ccccc1-c1nc(N)ncc1-c1ccc(=O)n(C(C)C)n1 [Example 189, 6-[2-Amino-4-(2-ethoxyphenyl)-5-pyrimidinyl]-2-isopropyl-3(2H)-pyridazinone]"
12,142,"CCOc1cccc(-c2nc(N)ncc2-c2ccc(=O)n(C(C)C)n2)c1 [Example 190, 6-[2-Amino-4-(3-ethoxyphenyl)-5-pyrimidinyl]-2-isopropyl-3(2H)-pyridazinone]"
13,175,"CCCOc1ccc(-c2nc(N)ncc2-c2ccc(=O)n(C(C)C)n2)cc1 [Example 191, 6-[2-Amino-4-(4-propoxyphenyl)-5-pyrimidinyl]-2-isopropyl-3(2H)-pyridazinone]"
14,145,"CCCOc1ccccc1-c1nc(N)ncc1-c1ccc(=O)n(C(C)C)n1 [Example 192, 6-[2-Amino-4-(2-propoxyphenyl)-5-pyrimidinyl]-2-isopropyl-3(2H)-pyridazinone]"
15,122,"CCCOc1cccc(-c2nc(N)ncc2-c2ccc(=O)n(C(C)C)n2)c1 [Example 193, 6-[2-Amino-4-(3-propoxyphenyl)-5-pyrimidinyl]-2-isopropyl-3(2H)-pyridazinone]"
16,164,"CC(C)Oc1ccc(-c2nc(N)ncc2-c2ccc(=O)n(C(C)C)n2)cc1 [Example 194, 6-[2-Amino-4-(4-isopropoxyphenyl)-5-pyrimidinyl]-2-isopropyl-3(2H)-pyridazinone]"
17,143,"CC(C)Oc1cccc(-c2nc(N)ncc2-c2ccc(=O)n(C(C)C)n2)c1 [Example 196, 6-[2-Amino-4-(3-isopropoxyphenyl)-5-pyrimidinyl]-2-isopropyl-3(2H)-pyridazinone]"

row,SMILES,melting point [°C]
1,"CCCCOc1ccc(-c2nc(N)ncc2-c2ccc(=O)n(C(C)C)n2)cc1 [Example 197, 6-[2-Amino-4-(4-butoxyphenyl)-5-pyrimidinyl]-2-isopropyl-3(2H)-pyridazinone]",143
2,"CCCCOc1ccccc1-c1nc(N)ncc1-c1ccc(=O)n(C(C)C)n1 [Example 198, 6-[2-Amino-4-(2-butoxyphenyl)-5-pyrimidinyl]-2-isopropyl-3(2H)-pyridazinone]",149
3,"CCCCOc1cccc(-c2nc(N)ncc2-c2ccc(=O)n(C(C)C)n2)c1 [Example 199, 6-[2-Amino-4-(3-butoxyphenyl)-5-pyrimidinyl]-2-isopropyl-3(2H)-pyridazinone]",130
